The source of these data is ChEMBL document CHEMBL1201862, “PubChem BioAssay data set” (2004).

Common to all, as to assay: growth of human tumour cells (NCI), 48 h
Experiment [1] has as its system DU-145.
Experiment [2] relates to HT-29.
The test system of experiment [3] is T47D.
For experiment [4], the system named is SK-MEL-5.
Experiment [5] deals with SN12C.
Experiment [6] concerns OVCAR-3.
Experiment [7] relates to PC-3.
In experiment [8] the test system is NCI-H460.
Experiment [9] has as its system MCF7.
Experiment [10] deals with SK-MEL-28.
Experiment [11] relates to SK-MEL-2.
Experiment [12] relates to HCC 2998.
The test system of experiment [13] is IGROV-1.
The test system of experiment [14] is NCI/ADR-RES.
The subject of experiment [15] is HOP-92.
The test system of experiment [16] is Hs-578T.
For experiment [17], the system named is HL-60.

Molecules are shown by their SMILES.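 Test compounds were applied to cells in 96-well plates for 48 hours at 5 doses. Abbreviation: GI50, concentration required for 50% inhibition of growth.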 The source made the active and inactive calls. Rule as the data show it: active = GI50 up to about 1.1 µM and inactive = higher.

On to `COc1cc(/C=C2\C[C@H]3[C@@H]4CCc5cc(O)ccc5[C@H]4CC[C@]3(C)C2=O)cc(OC)c1OC`, for which the GI50 in experiment [1] is 3.69 µM (inactive); in [2], 12.5 µM (inactive); in experiment [3], 13.5 µM (inactive); in experiment [4], 4.31 µM (inactive); in [5] it was 15.1 µM (inactive); in [6], 11.4 µM (inactive). Also, the GI50 was 10.1 µM (inactive) in [7]; 45.2 µM (inactive) in experiment [8]; 52.6 µM (inactive) in experiment [9]; 11.8 µM (inactive) in [10]; 14 µM (inactive) in [11]; 12.9 µM (inactive) in experiment [12]. Further, the figures for the GI50 in experiment [13] and in [14] were 15.3 µM (inactive) and 16.8 µM (inactive), respectively.
`COc1ccc2c(c1)c(=Cc1ccc(N(C)C)cc1)c1cc(-c3ccccc3)[n+](C)n12`: the GI50 was 0.187 µM (active) in experiment [15]; 0.479 µM (active) in experiment [1]; 0.171 µM (active) in experiment [2]; 0.124 µM (active) in experiment [16]; 0.304 µM (active) in [4]; 0.345 µM (active) in [5]. Besides, the GI50 was 0.23 µM (active) in experiment [6]; 0.322 µM (active) in [7]; 0.245 µM (active) in [8]; 0.327 µM (active) in experiment [9]; 0.634 µM (active) in experiment [10]; 0.284 µM (active) in experiment [17]. For the same molecule, the GI50 in experiment [11] is 0.452 µM (active); in [12], 0.324 µM (active); in [13], 0.144 µM (active); in experiment [14] it was 3.66 µM (inactive).
As for `CC12C(=O)OC(=O)C1(C)C1C=CC2O1` (configuration not stated), the GI50 in [1] is > 100 µM (inactive); in [2], > 100 µM (inactive); in experiment [16], 29.1 µM (inactive); in [4], 66.4 µM (inactive); in [5], > 100 µM (inactive); in experiment [6] it was 30.3 µM (inactive). In addition, the GI50 in experiment [7], in experiment [8], in [9], in experiment [10], in experiment [17] and in experiment [11] was > 100 µM (inactive) in each case. Moreover, the GI50 in [12], in [13] and in experiment [14] was > 100 µM (inactive) throughout.
`CC(C)(C)[Si](C)(C)OC1(CCc2ccccc2OS(=O)(=O)C(F)(F)F)CCCC=C1COCc1ccccc1` (configuration not stated): the GI50 in [1] was > 100 µM (inactive); in experiment [3], 6.35 µM (inactive); in experiment [6], > 100 µM (inactive); in [7], 3.51 µM (inactive); in experiment [9] it was 19.1 µM (inactive); in experiment [10], > 59.6 µM (inactive). Also, the GI50 in [17] is 2.42 µM (inactive); in [11] it was 4.59 µM (inactive); in experiment [13], 4.81 µM (inactive); in experiment [14], > 100 µM (inactive).
On to `COc1ccc(NC(C)=O)cc1N1C(=O)/C(=C\c2cc(OC)c(OC)c(OC)c2)S(=O)(=O)C1c1ccccc1` (configuration not stated), for which the GI50 in experiment [15] is 51.3 µM (inactive); in experiment [1] it was 75 µM (inactive); in experiment [2], 47.2 µM (inactive); in experiment [3], 38.3 µM (inactive); in [4] it was 44.8 µM (inactive); in experiment [5] it was 50.8 µM (inactive). Moreover, the GI50 in experiment [6] was 60.3 µM (inactive); in [7], 39.3 µM (inactive); in [8] it was 58.9 µM (inactive); in experiment [9], 33 µM (inactive); in [10], 39.3 µM (inactive); in [17] it was 19.3 µM (inactive). Besides, the GI50 in experiment [11] was > 100 µM (inactive); in [12] it was > 100 µM (inactive); in [13], 98.4 µM (inactive); in [14], 73.6 µM (inactive).
Turning to `COC(=O)C(CCCCNC(=O)CNC(=O)OCc1ccccc1)NC(=O)C(CCCCNC(=O)CNC(=O)OCc1ccccc1)NC(=O)OCc1ccccc1` (configuration not stated), the GI50 in [1] was 98.4 µM (inactive); in experiment [2], > 100 µM (inactive); in experiment [3] it was 20.3 µM (inactive); in experiment [4] it was 69.5 µM (inactive); in experiment [5] it was > 100 µM (inactive); in experiment [6], 53.3 µM (inactive). For the same molecule, the GI50 in experiment [7] was 96.2 µM (inactive); in experiment [8], > 100 µM (inactive); in experiment [9], 0.0805 µM (active); in [10], 53.8 µM (inactive); in [17] it was 83.2 µM (inactive); in experiment [11], 19 µM (inactive). Moreover, the GI50 in experiment [12] is 52.2 µM (inactive); in experiment [13] it was > 10 µM (inactive).
Consider `Cc1n[nH]c(=O)n1N=C(c1ccccc1)c1ccccc1`, for which the GI50 in [15], in [1], in [2], in experiment [16], in experiment [4] and in experiment [5] was > 100 µM (inactive) throughout. For the same molecule, the GI50 in experiment [6], in [7], in [8], in experiment [9], in experiment [10] and in [11] was > 100 µM (inactive) in each case. Further, the GI50 in experiment [13] and in [14] was > 100 µM (inactive) in each case.
Turning to `NCc1ccc(-c2ccc(-c3ccc(-c4ccc(CN)s4)s3)s2)s1`, the GI50 in experiment [15], in experiment [1], in experiment [2], in experiment [3], in [4] and in experiment [5] was > 100 µM (inactive) in each case. For the same molecule, the GI50 in [6], in experiment [7], in experiment [9], in [10], in experiment [17] and in [11] was > 100 µM (inactive) in each case. The GI50 in [12], in [13] and in [14] was > 100 µM (inactive) in each case.
In the case of `CC(C)(C)OC(=O)N1CCC(NC(=O)NC2CCN(C(=O)OC(C)(C)C)CC2)CC1`, the GI50 in experiment [15], in experiment [2], in [16], in experiment [5], in experiment [6] and in experiment [7] was > 100 µM (inactive) each time. The GI50 in experiment [8], in experiment [9], in experiment [10], in experiment [17], in [11] and in experiment [12] was > 100 µM (inactive) each time. The GI50 in [13] and in experiment [14] was > 100 µM (inactive) throughout.
For the molecule `CN(C)CC1CN=C(N)O1` (configuration not stated), the GI50 in [15], in [1], in [4], in experiment [5], in experiment [6] and in experiment [7] was > 100 µM (inactive) in each case. Moreover, the GI50 in [8], in experiment [9], in experiment [10], in experiment [11], in experiment [12] and in experiment [14] was > 100 µM (inactive) throughout.
For `Cn1c2ccccc2c2c3c(c4c5ccccc5n(C)c4c21)C(=O)c1ccccc1C3=O`, the GI50 is 53.3 µM (inactive) in experiment [15]; > 100 µM (inactive) in [1]; > 100 µM (inactive) in experiment [2]; 13.2 µM (inactive) in [3]; 56 µM (inactive) in experiment [4]; 61.2 µM (inactive) in experiment [5]. Further, the GI50 in experiment [6] was 41.8 µM (inactive); in [7], 45.8 µM (inactive); in experiment [8], 64.1 µM (inactive); in [9], 67.1 µM (inactive); in [10], > 100 µM (inactive); in experiment [17], 21 µM (inactive). Besides, the GI50 in experiment [11] was 40.3 µM (inactive); in experiment [12] it was 96.8 µM (inactive); in experiment [13], 31 µM (inactive); in experiment [14] it was 61.1 µM (inactive).
Turning to `CC1(C)CCSC(/C=C/c2ccccc2)=N1`, the GI50 in [15] is 13.4 µM (inactive); in experiment [1], 35.8 µM (inactive); in experiment [2], 18.4 µM (inactive); in [16], 43.4 µM (inactive); in [4] it was 15.2 µM (inactive); in experiment [6] it was 15.2 µM (inactive). The GI50 in [7] is 16.6 µM (inactive); in experiment [8], 12.1 µM (inactive); in experiment [9], 12.3 µM (inactive); in experiment [10], 19.3 µM (inactive); in experiment [17], 33.1 µM (inactive); in [11] it was 14.6 µM (inactive). Also, the GI50 in experiment [13] is 20.6 µM (inactive); in experiment [14], 14.7 µM (inactive).
Take `Oc1cc(O)c2ccc(-c3ccc(O)c(O)c3)[o+]c2c1`: the GI50 in [15], in [2], in experiment [16], in experiment [5], in experiment [6] and in experiment [7] was > 100 µM (inactive) in each case. Moreover, the GI50 in experiment [8], in experiment [9], in [10], in experiment [17], in experiment [11] and in experiment [12] was > 100 µM (inactive) throughout. In addition, the GI50 in [13] and in experiment [14] was > 100 µM (inactive) each time.
In the case of `O=C(COc1ccc(OCC(=O)NNC2=NC(c3cc(F)c(Cl)cc3Cl)CS2)c(Cl)c1)NNC1=NC(c2cc(F)c(Cl)cc2Cl)CS1` (configuration not stated), the GI50 in [15] is 21.6 µM (inactive); in [1] it was 22.8 µM (inactive); in [2], 25.6 µM (inactive); in experiment [16], 20.6 µM (inactive); in [5] it was 20.7 µM (inactive); in experiment [7], 22.1 µM (inactive). Besides, the GI50 in [8] is 29.9 µM (inactive); in experiment [9] it was 14 µM (inactive); in experiment [10] it was 29.5 µM (inactive); in experiment [17] it was 38.1 µM (inactive); in experiment [11], 36.2 µM (inactive); in experiment [13], 20.1 µM (inactive). Also, the GI50 in [14] was 44.8 µM (inactive).
